# Assays:
# [1] = biological target: CYP3A4 (C377/C468 mutant) (Homo sapiens, UniProt P08684, form not given/S18F); experiment: Ligand-induced spin shift, absorbance titration; format: binding; conditions: human, purified CYP3A4(C377/C468) mutant protein, pH 7.4; read-out: K D or S 50
# Protocol: (§1) All absorbance and fluorescence assays (including the time-resolved fluorescence measurements) were performed at a protein concentration ≤1 µM at 25°C with continuous stirring. Absorbance spectra were recorded with an S2000 rapid scanning CCD spectrometer (Ocean Optics). Ligand binding assays were done in 100 mM Na-Hepes buffer, pH 7.4, containing 0.5 mM EDTA.
# (§2) Absorbance spectra obtained in titration experiments were analyzed with a principal component analysis (PCA) procedure complemented with least-square approximation of the principal vectors with a combination of the prototypical spectra of the CYP3A4 low-spin, high-spin and Type II-substrate-bound ferric CYP3A4 P450 states as described, [31].
# (§3) When fitting the results of titration experiments, where the changes in the monitored signal A S (fraction of the enzyme in the high-spin state, intensity or the lifetime of the donor phosphorescence at a given substrate concentration) were assumed to be proportional to [ES], this equation was complemented with the offset A 0 and the scaling factor A max to yield the following relationship: [drawing 5] (Eq.5)
# [2] = biological target: CYP3A4 (C64/C468 mutant) (Homo sapiens, UniProt P08684, form not given/S18F); experiment: Ligand-induced spin shift, absorbance titration; format: binding; conditions: human, purified CYP3A4(C64/C468) mutant protein, pH 7.4; read-out: K D or S 50
# Sequence of CYP3A4 (C64/C468 mutant) (P08684 13-503 S18F, form open): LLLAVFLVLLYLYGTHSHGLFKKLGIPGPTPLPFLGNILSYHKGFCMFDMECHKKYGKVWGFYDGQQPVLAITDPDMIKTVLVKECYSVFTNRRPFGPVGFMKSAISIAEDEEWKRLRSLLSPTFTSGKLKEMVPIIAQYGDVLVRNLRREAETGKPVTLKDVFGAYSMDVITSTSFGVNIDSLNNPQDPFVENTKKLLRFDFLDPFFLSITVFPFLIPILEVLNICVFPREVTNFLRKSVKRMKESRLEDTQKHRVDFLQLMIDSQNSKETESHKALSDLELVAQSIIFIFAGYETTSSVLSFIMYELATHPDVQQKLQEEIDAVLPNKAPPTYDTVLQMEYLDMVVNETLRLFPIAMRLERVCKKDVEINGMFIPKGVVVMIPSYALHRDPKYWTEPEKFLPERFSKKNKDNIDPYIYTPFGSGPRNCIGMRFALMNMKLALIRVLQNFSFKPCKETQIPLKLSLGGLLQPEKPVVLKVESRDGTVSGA
# Protocol: as §1, §2, §3
# [3] = biological target: T1, double-labeled CYP3A4 (C64/C468)-ER/DY (Homo sapiens, UniProt P08684, S18F, form not given); experiment: Time-resolved LRET (phosphorescence lifetime measurements)
# T1 sequence (P08684 13-503 S18F, form open): as above
# Description: (§4) The excitation wavelength was set to 540 nm.
# [4] = biological target: T2, double-labeled CYP3A4 (C64/C468)-DY/ER (Homo sapiens, UniProt P08684, S18F, form not given); experiment: as above
# T2 sequence (P08684 13-503 S18F, form open): as above
# Description: as §4
# [5] = biological target: T3, double-labeled CYP3A4 C377/C468-DY/ER (Homo sapiens, UniProt P08684, S18F, form not given); experiment: as above
# T3 sequence (P08684 13-503 S18F, form open): as above
# Description: as §4
# [6] = biological target: double-labeled CYP3A4 C64/C121-DY/ER (Homo sapiens, UniProt P08684, A121C/C239S/C377S/C468A/C98S/S18F); experiment: Steady-state LRET titration (delayed emission); conditions: Table S2, protein C64/C121-ER/DY
# Sequence of double-labeled CYP3A4 C64/C121-DY/ER (P08684 with tags, fused parts or gaps S18F/C98S/A121C/C239S/C377S/C468A limits assumed): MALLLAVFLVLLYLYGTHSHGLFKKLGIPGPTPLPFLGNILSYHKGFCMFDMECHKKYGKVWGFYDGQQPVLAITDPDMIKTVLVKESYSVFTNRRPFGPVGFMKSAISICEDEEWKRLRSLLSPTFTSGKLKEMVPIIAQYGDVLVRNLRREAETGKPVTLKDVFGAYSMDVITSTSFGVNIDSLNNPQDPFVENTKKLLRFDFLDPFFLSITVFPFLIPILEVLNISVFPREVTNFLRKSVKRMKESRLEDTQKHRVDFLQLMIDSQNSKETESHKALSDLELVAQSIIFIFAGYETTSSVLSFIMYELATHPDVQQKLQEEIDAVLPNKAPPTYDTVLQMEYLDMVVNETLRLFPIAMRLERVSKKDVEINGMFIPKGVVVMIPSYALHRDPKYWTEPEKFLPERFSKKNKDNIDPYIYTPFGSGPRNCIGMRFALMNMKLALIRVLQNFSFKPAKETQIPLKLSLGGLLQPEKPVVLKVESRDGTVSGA
# Protocol: as §1
# (§5) Fluorescence-based ligand binding assays were done under anaerobic conditions. Anaerobiosis was achieved using an oxygen-scavenging system consisting of protecatechuate-3,4-dioxygenase (0.5 units/ml) and 5 mM protocatechuic acid. The steady state and time-resolved phosphorescence measurements were performed with the use of a Cary Eclipse fluorescence spectrophotometer (Varian/Agilent Technologies). The excitation wavelength was set to 540 nm. Spectra were taken from 650 to 860 nm with 100 µs delay.
# (§6) Quantitative interpretation of LRET results was also based on the use of PCA applied to a series of emission spectra normalized on integral intensity. […] Intensity of the donor and acceptor fluorescence obtained in this way were used in determination of the efficiency of steady-state LRET using the equation [drawing 1] (Eq.1) where I ad is emission intensity of the acceptor, I da is the residual donor emission in the presence of acceptor (I da), Φ a and Φ d are the quantum yield of the fluorescence of acceptor and the quantum yield of the phosphorescence of donor, respectively.
# (§7) Distances were calculated using the equation: [drawing 3] (Eq.3) where R 0 is the Förster distance, and R is the distance between the donor and acceptor. R 0 was calculated with the use of PhotoChemCad software. In these calculations, we used the values of the orientation factor (κ^2) and the refractive index (n) of 0.667 and 1.4, respectively.
# as §3
# [7] = biological target: T1, double-labeled CYP3A4 (C64/C468)-ER/DY; experiment: Steady-state LRET titration (delayed emission); format: binding
# Protocol: as §1, §5, §6, §7, §3
# [8] = biological target: CYP3A4 (double-labeled (C64/C468)-DY/ER) (Homo sapiens, UniProt P08684, form not given/S18F); experiment: Steady-state LRET titration (delayed emission); format: binding; conditions: human, purified double-labeled CYP3A4 (C64/C468)-DY/ER protein, pH 7.4; (C64/C468)-DY/ER; LRET titration; read-out: K d, steady-state fluorescence
# Sequence of CYP3A4 (double-labeled (C64/C468)-DY/ER) (P08684 13-503 S18F, form open): as the sequence (P08684 13-503 S18F, form open) above
# Protocol: as §1, §5, §6, §7, §3
# [9] = biological target: T2, double-labeled CYP3A4 (C64/C468)-DY/ER; experiment: Steady-state LRET titration (delayed emission); format: binding
# Protocol: as §1, §5, §6, §7, §3
# [10] = biological target: T3, double-labeled CYP3A4 C377/C468-DY/ER; experiment: Steady-state LRET titration (delayed emission); format: binding; conditions: Table S2, protein C377/C468-ER/DY
# Protocol: as §1, §5, §6, §7, §3
# [11] = (C64/C468)-ER/DY, nearly-saturating ligand: ANF 100 µM, bromocriptine 2.5 µM, cholesterol 50 µM, testosterone 100 µM
# [12] = Table S1, (C64/C468)-ER/DY, same ligand concentrations
# [13] = Table S2, C64/C468-ER/DY, 1-PB 40 µM, ANF 100 µM, BCT 2.5 µM, cholesterol 100 µM, testosterone 100 µM
# [14] = Table S2, C64/C468-ER/DY, same ligand concentrations
# [15] = (C64/C468)-DY/ER, nearly-saturating ligand: ANF 100 µM, bromocriptine 2.5 µM, cholesterol 50 µM, testosterone 100 µM
# [16] = Table S1, (C64/C468)-DY/ER, same ligand concentrations
# [17] = Table S2, C64/C468-DY/ER, 1-PB 40 µM, ANF 100 µM, BCT 2.5 µM, cholesterol 100 µM, testosterone 100 µM
# [18] = Table S2, C64/C468-DY/ER, same ligand concentrations
# [19] = Table S1, protein (C377/C468)-ER/DY, same ligand concentrations
# [20] = Table S2, protein C377/C468-ER/DY, same ligand concentrations
# [21] = 1-PB 40 µM, ANF 100 µM, BCT 2.5 µM, cholesterol 100 µM, testosterone 100 µM
# Sequence of CYP3A4 (C377/C468 mutant) (P08684 13-503 S18F, form open): as above
compound,measurement,setting,value
"OCCCCc1ccc2ccc3cccc4ccc1c2c34 [1-PB, 1-pyrenebutanol]",Kd,[1],14 ± 2 µM
same,Kd,[2],5.7 ± 1.7 µM
same,"ΔELT (change in LRET efficiency), lifetime measurements",[3]; [11],−1.5±1%
same,"ΔR (change in interprobe distance), lifetime measurements",[3]; [11],0.4±0.1 Å
same,τ1 (phosphorescence decay time with ligand),"[3]; Table S1, (C64/C468)-ER/DY, 1-PB 40 µM, ANF 100 µM, BCT 2.5 µM, cholesterol 100 µM, testosterone 100 µM, bi-exponential fit",63 ± 2 µs
same,F1 (fraction of first exponential),[3]; [12],60 ± 8%
same,τ2 (phosphorescence decay time with ligand),[3]; [12],241 ± 5 µs
same,τav (average phosphorescence lifetime with ligand),[3]; [12],138 ± 4 µs
same,"E (LRET efficiency with ligand), lifetime measurements",[3]; [13],41 ± 1%
same,"R (interprobe distance with ligand), lifetime measurements",[3]; [14],36.7 ± 0.1 Å
same,"ΔR, lifetime measurements",[3]; [14],0.4 ± 0.1 Å
same,"ΔELT (change in LRET efficiency), lifetime measurements",[4]; [15],+3.8±1%
same,"ΔR (change in interprobe distance), lifetime measurements",[4]; [15],−0.9±0.1 Å
same,τ1 (phosphorescence decay time with ligand),"[4]; Table S1, (C64/C468)-DY/ER, 1-PB 40 µM, ANF 100 µM, BCT 2.5 µM, cholesterol 100 µM, testosterone 100 µM, bi-exponential fit",53 ± 1 µs
same,F1 (fraction of first exponential),[4]; [16],46 ± 3%
same,τ2 (phosphorescence decay time with ligand),[4]; [16],195 ± 7 µs
same,τav (average phosphorescence lifetime with ligand),[4]; [16],129 ± 1 µs
same,"E (LRET efficiency with ligand), lifetime measurements",[4]; [17],45 ± 1%
same,"R (interprobe distance with ligand), lifetime measurements",[4]; [18],35.8 ± 0.1 Å
same,"ΔR, lifetime measurements",[4]; [18],-0.9 ± 0.1 Å
same,τ1 (phosphorescence decay time with ligand),"[5]; Table S1, protein (C377/C468)-ER/DY, 1-PB 40 µM, ANF 100 µM, BCT 2.5 µM, cholesterol 100 µM, testosterone 100 µM, bi-exponential fit",45 ± 5 µs
same,F1 (fraction of first exponential),[5]; [19],30 ± 3%
same,τ2 (phosphorescence decay time with ligand),[5]; [19],149 ± 5 µs
same,τav (average phosphorescence lifetime with ligand),[5]; [19],118 ± 2 µs
same,"E (LRET efficiency with ligand), lifetime measurements","[5]; Table S2, protein C377/C468-ER/DY, 1-PB 40 µM, ANF 100 µM, BCT 2.5 µM, cholesterol 100 µM, testosterone 100 µM",35 ± 1%
same,"R (interprobe distance with ligand), lifetime measurements",[5]; [20],38.3 ± 0.3 Å
same,"ΔR, lifetime measurements",[5]; [20],1.6 ± 0.3 Å
same,"E (LRET efficiency with ligand), steady-state measurements",[6]; [21],18 ± 1%
same,"R (interprobe distance with ligand), steady-state measurements",[6]; same ligand concentrations,43.4 ± 0.7 Å
same,"ΔR, steady-state measurements",[6]; same ligand concentrations,0.8 ± 0.7 Å
same,"ΔR (change in interprobe distance), steady-state fluorescence",[7]; (C64/C468)-ER/DY,−0.3±0.8 Å
same,"ΔE (change in LRET efficiency), steady-state fluorescence","[7]; (C64/C468)-ER/DY, from maximal relative change in donor intensity",1±1%
same,"E (LRET efficiency with ligand), steady-state measurements",[7]; [13],30 ± 1%
same,"R (interprobe distance with ligand), steady-state measurements",[7]; [14],38.8 ± 0.8 Å
same,"ΔR, steady-state measurements",[7]; [14],−0.3 ± 0.8 Å
same,Kd,[8],22.2 ± 4 µM
same,"ΔR (change in interprobe distance), steady-state fluorescence",[9]; (C64/C468)-DY/ER,0.9±1.8 Å
same,"ΔE (change in LRET efficiency), steady-state fluorescence","[9]; (C64/C468)-DY/ER, from maximal relative change in donor intensity",−4±1%
same,"E (LRET efficiency with ligand), steady-state measurements",[9]; [17],41 ± 1%
same,"R (interprobe distance with ligand), steady-state measurements",[9]; [18],35.8 ± 1.8 Å
same,"ΔR, steady-state measurements",[9]; [18],0.9 ± 1.8 Å
same,"E (LRET efficiency with ligand), steady-state measurements",[10]; [21],16± 1%
same,"R (interprobe distance with ligand), steady-state measurements",[10]; same ligand concentrations,44.5 ± 0.7 Å
same,"ΔR, steady-state measurements",[10]; same ligand concentrations,−0.2 ± 0.7 Å
